Measurements from patent US4472387A, “Pharmaceutical compositions capable of increasing cerebral serotonin concentration” (Panmedica S.A., priority 1981, dated 1984).
Where a name gives a salt, the structure may show the parent alone. Each block holds one compound with its values, some of them ahead of it.

Columns and labels:
[1] = tested on: cerebral metabolism of serotonin; test: Percent increase in cerebral endogenic level of 5-HTP, 5-HT and 5-HIAA in the rat after intragastric administration; assay type: in vivo; conditions: 1 hour
Protocol: This study, carried out in the rat, determined the efficacy of the compositions according to the present invention on the cerebral metabolism of serotonin and established the potentiation of the serotoninogenic effect with respect to the reference (L)-5-HTP. (Purine, pyrimidine, and pyridine bases are, of themselves, entirely devoid of this activity.)
The animals were male adult rats of the OFA stain weighing 160 to 180 g. They were subjected to an alternating light cycle of 12 hours of light and 12 hours of darkness.
The various derivatives according to the invention were administered in distilled water intragastically at doses of 10, 25, and 50 mg/kg. After one hour, the rats were decapitated; and the contents of 5-hydroxytryptamine (5-HT), of 5-HIAA, and of 5-hydroxytryptophane in the brains were determined by the methods published by G. Curzon and Cool, [Brit. J. Pharmaco., 39, 653 (1970)].
They represent the percentage increase of cerebral endogenic levels at 10, 25, 50 mg/kg of the pure (L)-5-HTP (control) and of compositions according to the present invention for a given batch of control rats.

[2] = tested on: blood levels of 5-HTP and 5-hydroxyindolacetic acid (5-HIAA); test: Clinical results: blood levels of 5-HTP and 5-HIAA; assay type: in vivo; conditions: for blood levels of 5-HTP / blood levels of 5-hydroxyindolacetic acid (5-HIAA): clinical results; for blood levels of 5-hydroxyindolacetic acid (5-HIAA): principal metabolite of serotonin
Description: In interpreting the clinical results of these remarkable medicaments, the applicants have observed that a complex of inosine with 5-HTP, particularly a complex of inosine with (L)-5-HTP, triples the blood levels of 5-HTP and 5-hydroxyindolacetic acid (5-HIAA), the principal metabolite of serotonin.

[3] = tested on: mice; test: Toxicity, LD50 per os/mice; assay type: in vivo
Description: (§1) The toxicities of the salts and the complexes of 5-HTP according to the present invention are very low as witnessed by the LD50 's per os/mice assembled in Table 2 below: […]

[4] = Aqueous solubility
[5] = prolonged administration of high doses; cited from earlier work
[6] = tested on: cerebral serotonin; conditions: 5-HTP alone; cited from earlier work
[7] = Toxicity, LD50 per os/mice; assay type: in vivo; conditions: mouse, in vivo, po, mice
Description: as §1

[8] = tested on: receptors of benzodiazepines; conditions: P. Skolnick, 1979; cited from earlier work

Compound: NC(Cc1c[nH]c2ccc(O)cc12)C(=O)O.O.O=c1[nH]cnc2c1ncn2[C@@H]1O[C@H](CO)[C@@H](O)[C@H]1O (racemic) [Example 2, (DL) 5-HYDROXYTRYPTOPHANE INOSINATE]
- Percent increase in cerebral endogenic level of 5-HIAA ([1]; 10 mg/kg): 135%
- Percent increase in cerebral endogenic level of 5-HT ([1]; 10 mg/kg): 2%
- Percent increase in cerebral endogenic level of 5-Ht + 5-HIAA ([1]; 10 mg/kg): 85%
- Percent increase in cerebral endogenic level of (L)-5-HTP ([1]; 10 mg/kg): 110%
- Percent increase in cerebral endogenic level of 5-HIAA ([1]; 25 mg/kg): 345%
- Percent increase in cerebral endogenic level of 5-HT ([1]; 25 mg/kg): 80%
- Percent increase in cerebral endogenic level of 5-Ht + 5-HIAA ([1]; 25 mg/kg): 220%
- Percent increase in cerebral endogenic level of (L)-5-HTP ([1]; 25 mg/kg): 1665%
- Percent increase in cerebral endogenic level of 5-HIAA ([1]; 50 mg/kg): 1190%
- Percent increase in cerebral endogenic level of 5-HT ([1]; 50 mg/kg): 110%
- Percent increase in cerebral endogenic level of 5-Ht + 5-HIAA ([1]; 50 mg/kg): 700%
- Percent increase in cerebral endogenic level of (L)-5-HTP ([1]; 50 mg/kg): 1955%

Compound: N[C@H](Cc1c[nH]c2ccc(O)cc12)C(=O)O [(D)-5-HTP, reference compound]
- activity ([2]; pharmacological response): almost entire absence of activity

Compound: N[C@@H](Cc1c[nH]c2ccc(O)cc12)C(=O)O [(L)-5-HTP pure, (L)-5-hydroxytryptophane, reference compound]
- Percent increase in cerebral endogenic level of 5-HIAA ([1]; 10 mg/kg): 40%
- Percent increase in cerebral endogenic level of 5-HT ([1]; 10 mg/kg): 10%
- Percent increase in cerebral endogenic level of 5-Ht + 5-HIAA ([1]; 10 mg/kg): 55%
- Percent increase in cerebral endogenic level of (L)-5-HTP ([1]; 10 mg/kg): 120%
- Percent increase in cerebral endogenic level of 5-HIAA ([1]; 25 mg/kg): 110%
- Percent increase in cerebral endogenic level of 5-HT ([1]; 25 mg/kg): 25%
- Percent increase in cerebral endogenic level of 5-Ht + 5-HIAA ([1]; 25 mg/kg): 110%
- Percent increase in cerebral endogenic level of (L)-5-HTP ([1]; 25 mg/kg): 260%
- Percent increase in cerebral endogenic level of 5-HIAA ([1]; 50 mg/kg): 300%
- Percent increase in cerebral endogenic level of 5-HT ([1]; 50 mg/kg): 35%
- Percent increase in cerebral endogenic level of 5-Ht + 5-HIAA ([1]; 50 mg/kg): 180%
- Percent increase in cerebral endogenic level of (L)-5-HTP ([1]; 50 mg/kg): 650%

Compound: N[C@@H](Cc1c[nH]c2ccc(O)cc12)C(=O)O.O.O=c1[nH]cnc2c1ncn2[C@@H]1O[C@H](CO)[C@@H](O)[C@H]1O [Example 1, (L)-5-HTP INOSINATE]
- blood levels of 5-HTP [2]: triples
- blood levels of 5-hydroxyindolacetic acid (5-HIAA) [2]: triples
- Percent increase in cerebral endogenic level of 5-HIAA ([1]; 10 mg/kg): 165%
- Percent increase in cerebral endogenic level of 5-HT ([1]; 10 mg/kg): 2%
- Percent increase in cerebral endogenic level of 5-Ht + 5-HIAA ([1]; 10 mg/kg): 100%
- Percent increase in cerebral endogenic level of (L)-5-HTP ([1]; 10 mg/kg): 135%
- Percent increase in cerebral endogenic level of 5-HIAA ([1]; 25 mg/kg): 290%
- Percent increase in cerebral endogenic level of 5-HT ([1]; 25 mg/kg): 100%
- Percent increase in cerebral endogenic level of 5-Ht + 5-HIAA ([1]; 25 mg/kg): 195%
- Percent increase in cerebral endogenic level of (L)-5-HTP ([1]; 25 mg/kg): 1755%
- Percent increase in cerebral endogenic level of 5-HIAA ([1]; 50 mg/kg): 1010%
- Percent increase in cerebral endogenic level of 5-HT ([1]; 50 mg/kg): 70%
- Percent increase in cerebral endogenic level of 5-Ht + 5-HIAA ([1]; 50 mg/kg): 545%
- Percent increase in cerebral endogenic level of (L)-5-HTP ([1]; 50 mg/kg): 2665%

Compound: N[C@@H](Cc1c[nH]c2ccc(O)cc12)C(=O)O [Example 4, THEOPHYLLINE SALT OF (L)-5-HYDROXYTRYPTOPHANE]
- LD50 per os [3]: 1000 mg/kg
- solubility ([4]; water): 3500 µg/mL
- Percent increase in cerebral endogenic level of 5-HIAA ([1]; 10 mg/kg): 85%
- Percent increase in cerebral endogenic level of 5-Ht + 5-HIAA ([1]; 10 mg/kg): 75%
- Percent increase in cerebral endogenic level of (L)-5-HTP ([1]; 10 mg/kg): 55%
- Percent increase in cerebral endogenic level of 5-HIAA ([1]; 25 mg/kg): 270%
- Percent increase in cerebral endogenic level of 5-HT ([1]; 25 mg/kg): 25%
- Percent increase in cerebral endogenic level of 5-Ht + 5-HIAA ([1]; 25 mg/kg): 150%
- Percent increase in cerebral endogenic level of (L)-5-HTP ([1]; 25 mg/kg): 1200%
- Percent increase in cerebral endogenic level of 5-HIAA ([1]; 50 mg/kg): 870%
- Percent increase in cerebral endogenic level of 5-HT ([1]; 50 mg/kg): 35%
- Percent increase in cerebral endogenic level of 5-Ht + 5-HIAA ([1]; 50 mg/kg): 490%
- Percent increase in cerebral endogenic level of (L)-5-HTP ([1]; 50 mg/kg): 1710%

Compound: N[C@@H](Cc1c[nH]c2ccc(O)cc12)C(=O)O [Example 5-HTP, 5-hydroxytryptophane]
- renal lesions [5]: often results in renal lesions
- decarboxylation at the peripheral level [6]: considerable decarboxylation
- hepatic catabolism [6]: high hepatic catabolism
- overall yield of cerebral serotonin synthesized with respect to the amount of 5-hydroxytryptophane administered [6]: very low
- passage of the gastrointestinal and hematoencephalic barriers [6]: mediocre passage

Compound: Cc1ncc(CO)c(CO)c1O.Cl.N[C@@H](Cc1c[nH]c2ccc(O)cc12)C(=O)O [Example 7, EQUIMOLECULAR COMPLEX OF PYRIDOXINE WITH (L)-5-HYDROXYTRYPTOPHANE]
- Percent increase in cerebral endogenic level of 5-HIAA ([1]; 10 mg/kg): 35%
- Percent increase in cerebral endogenic level of 5-HT ([1]; 10 mg/kg): 20%
- Percent increase in cerebral endogenic level of 5-Ht + 5-HIAA ([1]; 10 mg/kg): 40%
- Percent increase in cerebral endogenic level of (L)-5-HTP ([1]; 10 mg/kg): 190%
- Percent increase in cerebral endogenic level of 5-HIAA ([1]; 25 mg/kg): 230%
- Percent increase in cerebral endogenic level of 5-HT ([1]; 25 mg/kg): 80%
- Percent increase in cerebral endogenic level of 5-Ht + 5-HIAA ([1]; 25 mg/kg): 165%
- Percent increase in cerebral endogenic level of (L)-5-HTP ([1]; 25 mg/kg): 420%
- Percent increase in cerebral endogenic level of 5-HIAA ([1]; 50 mg/kg): 755%
- Percent increase in cerebral endogenic level of 5-HT ([1]; 50 mg/kg): 25%
- Percent increase in cerebral endogenic level of 5-Ht + 5-HIAA ([1]; 50 mg/kg): 390%
- Percent increase in cerebral endogenic level of (L)-5-HTP ([1]; 50 mg/kg): 2500%

Compound: N[C@@H](Cc1c[nH]c2ccc(O)cc12)C(=O)O [Example 10, NI[…] OF (L)-5-HYDROXYTRYPTOPHANE]
- LD50 [7]: > 2000 mg/kg

Compound: N[C@@H](Cc1c[nH]c2ccc(O)cc12)C(=O)O [Example 12, CAFFEINE SALT OF (L)-5-HYDROXYTRYPTOPHANE]
- LD50 per os [3]: > 2000 mg/kg

- blood levels of 5-HTP [2]: triples
Compound: NC(Cc1c[nH]c2ccc(O)cc12)C(=O)O.O=c1[nH]cnc2c1ncn2C1OC(CO)C(O)C1O (stereo not shown) [complex of inosine with 5-HTP]
- blood levels of 5-hydroxyindolacetic acid (5-HIAA) [2]: triples

Compound: O=c1[nH]cnc2nc[nH]c12 [hypoxanthine, 1,7-dihydropurine-6-one]
- endogenous ligands of receptors of benzodiazepines [8]: can constitute endogenous ligands of receptors of benzodiazepines

Compound: O=c1[nH]cnc2c1ncn2[C@@H]1O[C@H](CO)[C@@H](O)[C@H]1O [inosine, 9-β-D-ribofuranosylhypoxanthine]
- endogenous ligands of receptors of benzodiazepines [8]: can constitute endogenous ligands of receptors of benzodiazepines

Compound: EQU[…] OF (L)-5-HYDROXYT[…] OF ALLOPURINOL [Example 5]
- LD50 per os [3]: 1000 mg/kg
- Percent increase in cerebral endogenic level of 5-HIAA ([1]; 10 mg/kg): 90%
- Percent increase in cerebral endogenic level of 5-HT ([1]; 10 mg/kg): 15%
- Percent increase in cerebral endogenic level of 5-Ht + 5-HIAA ([1]; 10 mg/kg): 60%
- Percent increase in cerebral endogenic level of (L)-5-HTP ([1]; 10 mg/kg): 108%
- Percent increase in cerebral endogenic level of 5-HIAA ([1]; 25 mg/kg): 100%
- Percent increase in cerebral endogenic level of 5-HT ([1]; 25 mg/kg): 70%
- Percent increase in cerebral endogenic level of 5-Ht + 5-HIAA ([1]; 25 mg/kg): 85%
- Percent increase in cerebral endogenic level of (L)-5-HTP ([1]; 25 mg/kg): 830%
- Percent increase in cerebral endogenic level of 5-HIAA ([1]; 50 mg/kg): 765%
- Percent increase in cerebral endogenic level of 5-HT ([1]; 50 mg/kg): 115%
- Percent increase in cerebral endogenic level of 5-Ht + 5-HIAA ([1]; 50 mg/kg): 475%
- Percent increase in cerebral endogenic level of (L)-5-HTP ([1]; 50 mg/kg): 2100%

Compound: EQU[…] OF […] (DL)-5-HYDROXYTRYPTOPHANE [Example 6]
- solubility in water ([4]; in words): very soluble in water
- Percent increase in cerebral endogenic level of 5-HIAA ([1]; 10 mg/kg): 20%
- Percent increase in cerebral endogenic level of 5-Ht + 5-HIAA ([1]; 10 mg/kg): 8%
- Percent increase in cerebral endogenic level of (L)-5-HTP ([1]; 10 mg/kg): 115%
- Percent increase in cerebral endogenic level of 5-HIAA ([1]; 25 mg/kg): 90%
- Percent increase in cerebral endogenic level of 5-HT ([1]; 25 mg/kg): 30%
- Percent increase in cerebral endogenic level of 5-Ht + 5-HIAA ([1]; 25 mg/kg): 65%
- Percent increase in cerebral endogenic level of (L)-5-HTP ([1]; 25 mg/kg): 230%
- Percent increase in cerebral endogenic level of 5-HIAA ([1]; 50 mg/kg): 360%
- Percent increase in cerebral endogenic level of 5-HT ([1]; 50 mg/kg): 60%
- Percent increase in cerebral endogenic level of 5-Ht + 5-HIAA ([1]; 50 mg/kg): 210%
- Percent increase in cerebral endogenic level of (L)-5-HTP ([1]; 50 mg/kg): 1575%
